The nature of this data set: second and third wash supernates of 1×10^8 RBCs/mL. Particulars: human, 37°C, up to 24 hours.

We go through two substances from paper PMC5659893 (2017).

RRGWALRLVLAY-NH2: the not cleaved entry is on record as “more than 90% recovered after 24 hours”.

With ILPWKWPWWPWRR-NH2, the not cleaved result is “more than 90% recovered after 24 hours”.
